Patent publication US8895725B2, “Use of 9, 10-anthraquinone compounds” (Shanghai Institute of Pharmaceutical Industry, priority 2008, dated 2014)
Values after ≈ are worked out from the molar mass of the structure shown. “Also recorded” adds a separate entry of the source. Where two headings read alike, the source gives them in different places.

How the values were obtained:
HCV = test: Focus reduction assay of HCV infection; assay type: cell-based; conditions: for inhibition effect towards HCV: summary in words; for inhibition at 100 µg/mL: 100 μg/ml; for Inhibition Rate of the number of Virus foci (%): cells pre-incubated 1 hour with interferon
Description: The stock solutions with a concentration of 20 mg/ml were prepared by dissolving the samples in DMSO and were kept at 4° C. When testing, the stored stock solutions were diluted to 5 mg/ml and 2 mg/ml with DMSO.
(§1) The derivative cell line of Huh7 and the virus strain of HCV were used in this experiment. The virus strain can produce high-titer and infectious virus particles of HCV in the cells.
(§2) The cells were inoculated in 96-well flat-bottomed plates at a concentration of 1×10^4/100 μl/well and cultivated overnight. The HCV supernatant was diluted to 1×10^3 ffu/ml with complete medium (DMEM contains 10% fetal bovine serum, 100 U/ml penicillin and 100 μg/ml streptomycin) and infected the cells at 50 ffu/well.
The sample solutions with different concentrations (2 mg/ml and 1 mg/ml) were respectively diluted in complete medium at a volume ratio of 1:50 to reach the concentrations of 40 μg/ml and 20 μg/ml. […] After 1 hour of incubation at room temperature, the culture medium in the 96-well flat-bottomed plates was discarded, then 100 μl of the above mixed solution was added to each well, and then was cultured for 8 hours in 37° C. incubator containing 5% CO2. After that, the supernatant was discarded, then was washed once with phosphate buffer without calcium or magnesium ion (DPBS). 150 μl of fresh complete medium was added to each well, and then was cultured for 64 hours in 37° C. incubator containing 5% CO2. 150 μl of 4% paraformaldehyde (PFA) was added to each well, and was fixed at room temperature for 15 min. The supernatant was discarded, then was washed with DPBS for 3 times, and Immune fluorescence staining was conducted with anti HCV-E2 human monoclonal antibody and anti-human secondary antibody labeled by immunofluorescein, then was watched with fluorescence microscope and the amounts of virus colony were recorded.
In the negative control group, DMSO was used instead of the sample solutions, and other conditions were the same as that in sample testing.
The solution of the interferon was diluted to 5, 50 and 500 IU/ml respectively with complete medium, and were hatched for 1 hour with cells, then diluted virus solution was added. Other conditions were the same as that in the extract testing. The inhibition rate=(the amount of virus colony in the negative control group−the amount of viruscolony in the experimental group)/the amount of virus colony in the negative control group×100%.

[1] = tested on: derivative cell line of Huh7; test: Cytotoxicity (cell density versus negative control group); assay type: cell-based
Description: as §1, §2
Instructions to Cytotoxicity: Noncytotoxic=the cell density of the experimental group/the cell density of the negative control group[…] Cytotoxicity=the cell density of the experimental group/the cell density of the negative control group<80%

[2] = Hepatitis C virus, Huh-7, 5 μg/ml, Huh7 derivative cells, read-out: Inhibition Rate of the number of Virus foci (%)
[3] = Hepatitis C virus, Huh-7, Huh7 derivative cells, read-out: Inhibition Rate of the number of Virus foci (%)
[4] = Hepatitis C virus, Huh-7, 10 μg/ml, Huh7 derivative cells, read-out: Inhibition Rate of the number of Virus foci (%)
[5] = Hepatitis C virus, Huh-7, 20 μg/ml, Huh7 derivative cells, read-out: Inhibition Rate of the number of Virus foci (%)
[6] = Hepatitis C virus, Huh-7, read-out: Inhibition Rate of the number of Virus foci (%)

Which results are given for `O=C1c2ccccc2C(=O)c2ccccc21` [Anthraquinone, 9,10-anthraquinone]?
inhibition at 5 µg/mL (HCV; [2]): 44%; inhibition effect towards HCV (HCV): obvious inhibition effect

With `COc1cc(O)c2c(c1)C(=O)c1cc(C)cc(O[C@@H]3OC(CO)[C@@H](O)C(O)C3O)c1C2=O` (stereo partly drawn) [Physcion-8-O-β-D-glucoside, physcion-8-O-β-D-glucoside] as the compound, how does the inhibition at 100 µg/mL (HCV; [3]) read?
Its inhibition at 100 µg/mL is 40%.

And the “inhibition effect towards HCV” value (HCV)?
Its value is “obvious inhibition effect”.

And the Cytotoxicity ([1]; 100 μg/ml)?
Its Cytotoxicity is “None”.

For `Cc1cc(O)c2c(c1)C(=O)c1cc(O)cc(O)c1C2=O` [Emodin, 1,3,8-dihydroxyl-6-methyl anthraquinone], which inhibition at 5 µg/mL (HCV; [2]) is on record?
The inhibition at 5 µg/mL was 52%.

And the inhibition at 10 µg/mL (HCV; [4])?
Its inhibition at 10 µg/mL is 79%.

What about the inhibition at 20 µg/mL (HCV; [5]) of the same compound?
Its inhibition at 20 µg/mL is 99%.

And the “inhibition effect towards HCV” value (HCV)?
Its value is “obvious inhibition effect”.

For `COc1cc(O)c2c(c1)C(=O)c1cc(C)cc(O)c1C2=O` [Physcion, 1,8-dihydroxyl-3-methoxy-6-methyl anthraquinone], which IC50 (HCV; Hepatitis C virus) is on record?
The IC50 was 8 ng/mL (≈ 0.0281 µM).

And the inhibition at 5 µg/mL (HCV; [2])?
The inhibition at 5 µg/mL was 100%.

What about the inhibition at 20 µg/mL (HCV; [5]) of the same compound?
The inhibition at 20 µg/mL was 100%.

What about the “anti-HCV activity compared with the other compounds” value (HCV; ranking in words) of the same compound?
The value was “better than other compounds; also recorded: the best”.

What about the “inhibition effect towards HCV” value (HCV) of the same compound?
The value was “obvious inhibition effect”.

What about the Cytotoxicity ([1]; 5 μg/ml) of the same compound?
The Cytotoxicity was “None”.

What about the Cytotoxicity ([1]; 20 μg/ml) of the same compound?
Its Cytotoxicity is “None”.

For `O=C1c2ccccc2C(=O)c2c1cc(S(=O)(=O)[O-])c(O)c2O.[Na+]` [Alizarin Red S, 1,2-dihydroxylanthraquinone-3-sulfonate], which inhibition at 10 µg/mL (HCV; [4]) is on record?
The inhibition at 10 µg/mL was 22%.

And the “inhibition effect towards HCV” value (HCV)?
The value was “obvious inhibition effect”.

Which inhibition at 5 µg/mL (HCV; [6]) does the source give for `O=C(O)c1cc(O)c2c(c1)C(=O)c1cccc(O)c1C2=O` [Rhein, 1,8-dihydroxyl-3-carboxyl anthraquinone] here?
Its inhibition at 5 µg/mL is 44%.

And the inhibition at 20 µg/mL (HCV; [6])?
Its inhibition at 20 µg/mL is 82%.

What about the “inhibition effect towards HCV” value (HCV) of the same compound?
The value was “obvious inhibition effect”.

And the Cytotoxicity ([1]; 5 μg/ml)?
The Cytotoxicity was “None”.

What about the Cytotoxicity ([1]; 20 μg/ml) of the same compound?
Its Cytotoxicity is “None”.

What does the source list for `O=C1c2ccccc2C(=O)c2c(O)ccc(O)c21` [1,4-dihydroxyl-9,10-anthraquinone]?
inhibition at 5 µg/mL (HCV; [6]): 81%; inhibition effect towards HCV (HCV): obvious inhibition effect; Cytotoxicity ([1]; 5 μg/ml): None

For `O=c1cc(-c2ccc(O)cc2)oc2cc(O)cc(O)c12` [Apigenin, reference compound], which inhibition at 5 µg/mL (HCV; [2]) is on record?
The inhibition at 5 µg/mL was 11%.

What about the inhibition at 20 µg/mL (HCV; [5]) of the same compound?
Its inhibition at 20 µg/mL is 47%.

What does the source list for `Cc1cc(O)c2c(c1)C(=O)c1cccc(O)c1C2=O` [Chrysophanic acid, 1,8-dihydroxyl-6-methyl anthraquinone]?
inhibition at 5 µg/mL (HCV; [2]): 21%; inhibition at 10 µg/mL (HCV; [4]): 17%; inhibition at 20 µg/mL (HCV; [5]): 48%; inhibition effect towards HCV (HCV): obvious inhibition effect

With α-interferon [reference compound] as the compound, how does the “Inhibition Rate of the number of Virus foci (%)” value (shortened to “Inhibition Rate … (%)”) (HCV; 5 IU/ml) read?
Its value is 53%.

And the “Inhibition Rate … (%)” value (HCV; 50 IU/ml)?
Its value is 79%.

What about the “Inhibition Rate … (%)” value (HCV; 500 IU/ml) of the same compound?
The value was 98%.

With `O=C1c2cccc(O)c2C(=O)c2c(O)cc(CO)cc21` [Aloe-emodin, 1,8-dihydroxyl-3-hydroxymethyl anthraquinone] as the compound, how does the inhibition at 5 µg/mL (HCV; [2]) read?
Its inhibition at 5 µg/mL is 95%.

And the inhibition at 20 µg/mL (HCV; [5])?
The inhibition at 20 µg/mL was 100%.

What about the “inhibition effect towards HCV” value (HCV) of the same compound?
The value was “obvious inhibition effect”.

With `O=C1c2cccc(O)c2C(=O)c2c(O)cccc21` [1,8-Dihydroxyl-9,10-anthraquinone, 1,8-dihydroxyl-9,10-anthraquinone] as the compound, how does the inhibition at 0.04 µg/mL (HCV; Hepatitis C virus, Huh-7, 0.04 μg/ml, Huh7 derivative cells, read-out: Inhibition Rate of the number of Virus foci (%)) read?
The inhibition at 0.04 µg/mL was 45%.

What about the inhibition at 0.2 µg/mL (HCV; Hepatitis C virus, Huh-7, 0.2 μg/ml, Huh7 derivative cells, read-out: Inhibition Rate of the number of Virus foci (%)) of the same compound?
Its inhibition at 0.2 µg/mL is 100%.

What about the “inhibition effect towards HCV” value (HCV) of the same compound?
Its value is “obvious inhibition effect”.

Which inhibition at 100 µg/mL (HCV; [3]) does the source give for `Cc1cc(O[C@@H]2OC(CO)[C@@H](O)C(O)C2O)c2c(c1)C(=O)c1cc(O)cc(O)c1C2=O` (stereo partly drawn) [Emodin-8-O-β-D-glucoside, emodin-8-O-β-D-glucoside] here?
Its inhibition at 100 µg/mL is 40%.

And the “inhibition effect towards HCV” value (HCV)?
The value was “obvious inhibition effect”.

And the Cytotoxicity ([1]; 100 μg/ml)?
Its Cytotoxicity is “None”.

How did the inhibition at 10 µg/mL (HCV; [6]) turn out when `O=C1c2ccccc2C(=O)c2c1ccc(O)c2O` [Alizarin, 1,2-dihydroxyl-9,10-anthraquinone] was run?
Its inhibition at 10 µg/mL is 31%.

What about the “inhibition effect towards HCV” value (HCV) of the same compound?
Its value is “obvious inhibition effect”.

And the Cytotoxicity ([1]; 10 μg/ml)?
The Cytotoxicity was “None”.
